Assay results reported in US20110052776A1, “CHOCOLATE COMPOSITIONS HAVING IMPROVED FLAVOUR CHARACTERISTICS” (priority 2007, published 2011).

Columns and labels:
[1] = test system: expert panel members; assay: Sucrose Equivalent Value (SEV) of pH 3.2 buffered sucrose solution, taste panel; assay type: in vivo; conditions: for SEV (%): 500 ppm of one potentiator in pH 3.2 buffered 5% sucrose solution; for effect on SEV of sucrose solutions, forms of 2,4-DHB: 500 ppm, pH 3.2 buffered solutions with 0%, 3%, 5%, 7% and 9% sucrose; for maximum sweetness attainable (SEV): pH 3.2 buffered 5% sucrose solution, dose response curve 0 to 1000 ppm; for SEV of solution containing 500 ppm 2,4-DHB and 500 ppm of a second sweetener potentiator: label = second potentiator, 5% sucrose solution
Procedure: (§1) One method of measuring the perceived sweetness of a solution is to match it with a stock sucrose solution of known concentration. In the present experiments, the compound of interest is added at a predetermined concentration to a pH 3.2 buffered solution containing 5% sucrose. A number of expert panel members then taste the solution and compare it to a battery of stock sucrose solutions ranging from 3% to 15% at increments of 1%. Each panel member decides which sucrose solution is equisweet with the solution containing the compound of interest. The mean value is then reported as the SEV. Results are reported to 1 decimal place.
In accordance with this methodology, 3-HB was added to a pH 3.2 buffered solution containing 5% sucrose to produce solutions containing from 0 to 1000 ppm 3-HB in 100 ppm increments. […] From FIG. 1 it is apparent that as the dosage of 3-HB increases so does the sweetness of the resultant solution. However the effect is non-linear with each incremental addition having a diminishing effect. The maximum sweetness attainable would appear to be about 7.9% SEV (based on a 5% sucrose solution).
The same methodology as described in Example 6 was repeated with 2,4-DHB in place of 3-HB, to produce the dose response curve for 2,4-DHB (FIG. 2). […] The maximum attainable sweetness would appear to be about 6.7% SEV (based on a 5% sucrose solution).
500 ppm of a sweetener potentiator was added to a pH 3.2 buffered solution containing 5% sucrose and the SEV of the resultant solution determined.
500 ppm of the sweetener potentiator then was added to a 5% sucrose solution containing 500 ppm 3-HB to produce a series of solutions. […] The use of 500 ppm of 3-HB alone results in an SEV of 6.9% whereas in all cases but two (2,4-DHB and 3,4-DHB) the addition of a second sweetener potentiator results in a little change or even a decrease in SEV. This is highly surprising considering that all of the potentiators are shown to have SEVs greater than 5%.
The methodology was repeated to produce a series of solutions containing 500 ppm 2,4-DHB and 500 ppm of a second sweetener potentiator.
500 ppm of 3-HB, 500 ppm of 2,4-DHB and 500 ppm of 3,4-dihydroxybenzoic acid (3,4-DHB) were added to a pH 3.2 buffered solution containing 5% sucrose and the SEV determined. The results are shown in FIG. 7 together with other combinations of 3-HB, 2,4-DHB and 3,4-DHB for comparison. The solution containing the combination of 3-HB and 2,4-DHB (hatched) has a much higher SEV (8.7%) than the combination of either 3,4-DHB and 3-HB (7.6%) or the combination of 3,4-DHB and 2,4-DHB (6.8%). The three-way combination of the embodiment (hatched) is better still with an SEV of 9.8%.
Buffered solutions of pH 3.2 were prepared containing 0%, 3%, 5%, 7% and 9% sucrose. 500 ppm of 2,4-DHB acid, 500 ppm of the sodium salt of 2,4-DHB and 500 ppm of the potassium salt of 2,4-DHB were added individually to each of the sucrose solutions. The SEV for each of the solutions was then determined.
500 ppm of 3-aminobenzoic acid and 500 ppm of 4-aminobenzoic acid were individually added to separate pH 3.2 buffered solutions containing 5% sucrose and the SEVs of the resultant solutions were determined. The SEV of 3-aminobenzoic acid was about 7%, i.e., increased the sweetness intensity of 5% sucrose to about 7%. The SEV of 4-aminobenzoic acid was about 5.5-6%, i.e., increased the sweetness intensity of 5% sucrose to about 5.5-6%.

[2] = test system: panel member; assay: Sucrose reduction method versus 10% sucrose control, taste panel; assay type: in vivo; conditions: 1000 ppm used individually; control pH 3.2 10% sucrose
Procedure: An alternative method of measuring perceived sweetness is to determine how much sucrose can be replaced through the use of the compound of interest without any Perceived loss of sweetness. In the present experiments the control was a pH 3.2 buffered solution containing 10% sucrose. The compound of interest is added at a predetermined concentration to a number of sucrose solutions containing from 5% to 10% sucrose at increments of 0.5%. Each panel member tastes each of the solutions, compares it to the control sample and decides which solutions are equisweet. For example, if the 8% sucrose solution containing the compound of interest is equisweet with the control, then the sucrose reduction achieved by the compound of interest is 20%.
A series of sucrose solutions were prepared containing 3-HB and 2,4-DHB at a combined concentration of 1000 ppm. Each solution was evaluated using the sucrose reduction method described above to determine how much sucrose could be replaced without noticeable loss of sweetness.
A series of sucrose solutions were prepared containing equal quantities of 3-HB and 2,4-DHB, at a combined concentration of 200, 400, 600, 800 and 1000 ppm. Each solution was evaluated using the sucrose reduction method described in Example 8 above to determine how much sucrose could be replaced without noticeable loss of sweetness.

[3] = cited from earlier work
[4] = test system: expert panel members; assay: SEV of non-sucrose sweetener solutions (SEV about 5%) after addition of potentiators; assay type: in vivo; conditions: 500 ppm 3-HB alone versus with 500 ppm 2,4-DHB; pH 3.2
Procedure: as §1
The SEV of each sweetener solution was then evaluated after the addition 500 ppm of 3-HB, the addition of 500 ppm of 2,4-DHB and the addition of both 500 ppm 3-HB and 2,4-DHB.

In the case of `O=C(O)c1ccc(O)c(O)c1O` [2,3,4-trihydroxybenzoic acid (2,3,4-THB), 2,3,4-trihydroxybenzoic acid], the “SEV (%)” value [1] is reported as 5.4%.

In the case of `O=C(O)c1cccc(O)c1O` [2,3-dihydroxybenzoic acid (2,3-DHB), 2,3-dihydroxybenzoic acid], the “SEV (%)” value [1] is reported as 6.3%.

In the case of `O=C(O)c1c(O)cc(O)cc1O` [2,4,6-trihydroxybenzoic acid (2,4,6-THB), 2,4,6-trihydroxybenzoic acid], the “SEV (%)” value [1] is reported as 5.4%.

In the case of `O=C(O)c1ccc(O)cc1O` [2,4-DHB, 2,4-dihydroxybenzoic acid], the sucrose reduction [2] is listed as 15%, the “effect on the sweetness intensity of both sucralose and aspartame” value ([3]; FIGS. 1 and 2 and Tables 1 and 2 of U.S. Pat. No. 6,461,658) is listed as “slightly inhibitory effect” and the “length of time during which sucralose sweetness is perceived” value ([3]; U.S. Pat. No. 6,461,658) is listed as “significantly reducing”. For the same molecule, the “effect on sweetness of a 5% sucrose solution” value ([3]; addition of 0.2% 2,4-DHB, Canadian Patent No. 1208966) was “increase in sweetness”, the SEV ([1]; 400 ppm in pH 3.2 buffered 5% sucrose solution) was 6.5% and the “SEV (%)” value [1] was 6.5%. For the same molecule, the “effect on SEV of sucrose solutions, forms of 2,4-DHB” value (“effect on SEV of sucrose solutions” for short) [1] was “enhances the sweetness of the sucrose solution in every case”, the SEV ([1]; 1000 ppm in pH 3.2 buffered 5% sucrose solution) was 6.7% and the “maximum sweetness attainable (SEV)” value [1] was “about 6.7 % SEV”.

In the case of `O=C(O)c1cc(O)ccc1O` [2,5-dihydroxybenzoic acid (2,5-DHB), 2,5-dihydroxybenzoic acid], the “SEV (%)” value [1] is reported as 5.3%.

With `O=C(O)c1c(O)cccc1O` [2,6-dihydroxybenzoic acid (2,6-DHB), 2,6-dihydroxybenzoic acid] the “SEV (%)” value [1] was 5.3%.

With `O=C(O)c1ccccc1O` [2-hydroxybenzoic acid (2-HB), 2-hydroxybenzoic acid] the “SEV (%)” value [1] was 5.6% and the “SEV of solution containing 500 ppm 2,4-DHB and 500 ppm of a second sweetener potentiator” value [1] was 6.3%.

In the case of `O=C(O)c1cc(O)c(O)c(O)c1` [3,4,5-tryhydroxybenzoic acid (3,4,5-THB), 3,4,5-tryhydroxybenzoic acid], the “SEV (%)” value [1] is reported as 5.1%.

In the case of `O=C(O)c1ccc(O)c(O)c1` [3,4-dihydroxybenzoic acid (3,4-DHB), 3,4-dihydroxybenzoic acid], the “SEV (%)” value [1] is reported as 6.4%.

With `O=C(O)c1cc(O)cc(O)c1` [3,5-dihydroxybenzoic acid (3,5-DHB), 3,5-dihydroxybenzoic acid] the “SEV (%)” value [1] was 5.3%.

For `Nc1cccc(C(=O)O)c1` [3-aminobenzoic acid], the “SEV (%)” value [1] was “about 7%”.

For `Nc1ccc(C(=O)O)cc1` [4-aminobenzoic acid], the “SEV (%)” value [1] was 5.5-6%.

With `O=C(O)c1ccc(O)cc1` [4-hydroxybenzoic acid (4-HB), 4-hydroxybenzoic acid] the “SEV (%)” value [1] was 5.2% and the “SEV of solution containing 500 ppm 2,4-DHB and 500 ppm of a second sweetener potentiator” value [1] was 6.2%.

For `O=C(O)c1cccc(O)c1` [Example 3-HB, 3-hydroxybenzoic acid], the “effect on sweetness of saccharin solution” value [4] was “enhances the sweetness to a greater degree alone than in combination with 2,4-DHB”, the sucrose reduction [2] was 25% and the “SEV (%)” value [1] was 6.9%. The “maximum sweetness attainable (SEV)” value [1] was “about 7.9 % SEV”.

For `O=C([O-])c1ccc(O)cc1O.[K+]` [potassium salt of 2,4-DHB], the “effect on SEV of sucrose solutions” value [1] was “enhances the sweetness of the sucrose solution in every case”.

For `O=C([O-])c1ccc(O)cc1O.[Na+]` [sodium salt of 2,4-DHB], the “effect on SEV of sucrose solutions” value [1] was “enhances the sweetness of the sucrose solution in every case”.
